This is an account of results in patent US20020031795A1, “Nitrocoumarins for detecting all micro-organisms” (priority 1998, published 2002).

The subject of experiment [1] is Escherichia coli (NCTC 10418). As to the kind of experiment: Growth of E. coli in Mueller-Hinton broth in the presence of nitrocoumarins (optical density 690 nm). It counts as cell-based. Particulars: 0.105 mmol/l. As to the method: (§1) A sample of the 7-nitrocoumarin derivative is dissolved in 4 ml of hot, distilled water. The mass dissolved to make the stock solution is such that the final concentration of the compound in the assay is 0.105 mmol/l. This solution is added to 96 ml of Mueller-Hinton broth and the mixture is sterile-filtered.
(§2) The E. coli was grown for 24 hours at 35° C. on Columbia agar supplemented with sheep blood. The bacteria were then resuspended in sterile, distilled water and their density was adjusted to 0.5 on the MacFarland scale (i.e. about 10^8 cells/ml). This suspension was then diluted 100-fold in sterile Mueller-Hinton broth (i.e. to a final density of about 10^6 cells/ml).
(§3) Fifty microliters of each nitrocoumarin solution plus 50 μl of bacterial suspension were then added to the wells of a microtiter plate. The plates were incubated at 35° C. and the optical density and fluorescence of each well was read every 30 min for a total of 4 hours. Optical density (690 nm) readings were made using an Anthos 2001 spectrophotometer (Labtech International Limited), and fluorescence (excitation at 365 nm and emission at 440 nm) readings were made on a Biolite F1 2001 fluorometer (Labtech International Limited).
(§4) The effect of the concentration of 7-nitrocoumarin-3-carboxylic acid on the sensitivity of the assay to detect E. coli (NCTC strain 10418) was investigated at concentrations of the indicator ranging from 0 to 0.262 mmol/l. All other conditions were identical to those described in section A above.

The test system of experiment [2] is E. coli (NCTC strain 10418). As to the kind of experiment: Fluorescent signal generated by E. coli reducing nitrocoumarins (nitroaryl reductase activity). Type of experiment: cell-based, Escherichia coli. As to conditions: 0.105 mmol/l; for Extent of reduction of the substrate (in words): end of the four-hour assay. As to the method: as §1, §2, §3, §4

In the case of `CC(=O)c1c(C)c2ccc([N+](=O)[O-])cc2oc1=O` [3-acetyl-4-methyl-7-nitrocoumarin], the “Optical density (690 nm)” value is listed as 0.000 in experiment [1] (0 min); −0.003 in experiment [1] (30 min); −0.002 in experiment [1] (60 min); −0.001 in experiment [1] (90 min); 0.002 in experiment [1] (120 min); 0.008 in experiment [1] (150 min). Further, the “Optical density (690 nm)” value was 0.023 in experiment [1] (180 min), 0.051 in experiment [1] (210 min) and 0.110 in experiment [1] (240 min). For the same compound, the Fluorescent signal in experiment [2] (0 min) was 0; in experiment [2] (30 min), 40; in experiment [2] (60 min), 390; in experiment [2] (90 min), 992; in experiment [2] (120 min), 1804; in experiment [2] (150 min) it was 2811. Further, the Fluorescent signal in experiment [2] (180 min) stood at 4090; in experiment [2] (210 min), 5576; in experiment [2] (240 min), 8017.
In the case of `CCCC(=O)c1cc2ccc([N+](=O)[O-])cc2oc1=O` [3-butyryl-7-nitrocoumarin], the “Inhibitory effect on the growth of E. coli (in words)” value in experiment [1] was “most powerful inhibitors”. Also, the “Optical density (690 nm)” value in experiment [1] (0 min) worked out at 0.000; in experiment [1] (30 min), 0.001; in experiment [1] (60 min), 0.005; in experiment [1] (90 min), 0.007; in experiment [1] (120 min), 0.009; in experiment [1] (150 min) it was 0.012. Further, the “Optical density (690 nm)” value in experiment [1] (180 min) stood at 0.015; in experiment [1] (210 min), 0.039; in experiment [1] (240 min), 0.096. For the same compound, the Fluorescent signal is given as 0 in experiment [2] (0 min); 64 in experiment [2] (30 min); 387 in experiment [2] (60 min); 894 in experiment [2] (90 min); 1538 in experiment [2] (120 min); 2344 in experiment [2] (150 min). Besides, the Fluorescent signal in experiment [2] (180 min) came out at 3329; in experiment [2] (210 min), 4642; in experiment [2] (240 min), 6845. Also, in experiment [2], the “Extent of reduction of the substrate (in words)” value was “least reduced”.
In the case of `Cc1cc(=O)oc2cc([N+](=O)[O-])ccc12` [4-methyl-7-nitrocoumarin], the “Optical density (690 nm)” value in experiment [1] (0 min) is recorded as 0.000; in experiment [1] (30 min) it was 0.000; in experiment [1] (60 min), 0.002; in experiment [1] (90 min) it was 0.004; in experiment [1] (120 min), 0.010; in experiment [1] (150 min), 0.024. The “Optical density (690 nm)” value stood at 0.055 in experiment [1] (180 min), 0.113 in experiment [1] (210 min) and 0.175 in experiment [1] (240 min). The Fluorescent signal in experiment [2] (0 min) is recorded as 0; in experiment [2] (30 min), 15; in experiment [2] (60 min), 302; in experiment [2] (90 min), 974; in experiment [2] (120 min), 2008; in experiment [2] (150 min) it was 3299. Also, the Fluorescent signal in experiment [2] (180 min) was determined as 5097; in experiment [2] (210 min), 7545; in experiment [2] (240 min) it was 11125.
On to `O=C(c1cc2ccc([N+](=O)[O-])cc2oc1=O)N1CCOCC1` [7-nitrocoumarin-3-carboxymorpholide], for which the “Optical density (690 nm)” value in experiment [1] (0 min) is on record as 0.000; in experiment [1] (30 min) it was −0.002; in experiment [1] (60 min) it was −0.001; in experiment [1] (90 min), 0.001; in experiment [1] (120 min), 0.005; in experiment [1] (150 min) it was 0.014. For the same compound, the “Optical density (690 nm)” value in experiment [1] (180 min) is 0.037; in experiment [1] (210 min) it was 0.068; in experiment [1] (240 min) it was 0.109. The Fluorescent signal in experiment [2] (0 min) worked out at 0; in experiment [2] (30 min), 180; in experiment [2] (60 min), 665; in experiment [2] (90 min), 1376; in experiment [2] (120 min), 2414; in experiment [2] (150 min), 3796. Further, the Fluorescent signal came out at 5817 in experiment [2] (180 min), 8454 in experiment [2] (210 min) and 12263 in experiment [2] (240 min).
In the case of `O=c1ccc2ccc([N+](=O)[O-])cc2o1` [7-nitrocoumarin], the “Optical density (690 nm)” value in experiment [1] (0 min) is given as 0.000; in experiment [1] (30 min), −0.002; in experiment [1] (60 min), 0.000; in experiment [1] (90 min), 0.002; in experiment [1] (120 min), 0.009; in experiment [1] (150 min), 0.025. Besides, the “Optical density (690 nm)” value in experiment [1] (180 min) was determined as 0.072; in experiment [1] (210 min), 0.133; in experiment [1] (240 min), 0.211. For the same compound, the Fluorescent signal is 0 in experiment [2] (0 min); 77 in experiment [2] (30 min); 519 in experiment [2] (60 min); 1447 in experiment [2] (90 min); 2915 in experiment [2] (120 min); 4713 in experiment [2] (150 min). For the same compound, the Fluorescent signal in experiment [2] (180 min) is 7160; in experiment [2] (210 min) it was 10182; in experiment [2] (240 min), 14189.
For `CCOC(=O)c1cc2ccc([N+](=O)[O-])cc2oc1=O` [ethyl-7-nitrocoumarin-3-carboxylate], the “Optical density (690 nm)” value is recorded as 0.000 in experiment [1] (0 min); −0.005 in experiment [1] (30 min); −0.008 in experiment [1] (60 min); −0.008 in experiment [1] (90 min); −0.006 in experiment [1] (120 min); 0.000 in experiment [1] (150 min). Moreover, the “Optical density (690 nm)” value in experiment [1] (180 min) turned out to be 0.018; in experiment [1] (210 min), 0.046; in experiment [1] (240 min), 0.116. In addition, the Fluorescent signal was 0 in experiment [2] (0 min); 173 in experiment [2] (30 min); 814 in experiment [2] (60 min); 1703 in experiment [2] (90 min); 2813 in experiment [2] (120 min); 4126 in experiment [2] (150 min). Also, the figures for the Fluorescent signal in experiment [2] (180 min), in experiment [2] (210 min) and in experiment [2] (240 min) were 5646, 7370 and 10859, respectively.
As for `COC(=O)c1cc2ccc([N+](=O)[O-])cc2oc1=O` [methyl-7-nitrocoumarin-3-carboxylate], the “Inhibitory effect on the growth of E. coli (in words)” value in experiment [1] was “most powerful inhibitors”. Moreover, in experiment [1], the “OD readings reduced compared with the untreated control” value was determined as 92%. Moreover, the “Optical density (690 nm)” value in experiment [1] (0 min) is on record as 0.000; in experiment [1] (30 min) it was −0.001; in experiment [1] (60 min), −0.001; in experiment [1] (90 min) it was 0.000; in experiment [1] (120 min) it was 0.000; in experiment [1] (150 min) it was 0.002. Also, the “Optical density (690 nm)” value came to 0.006 in experiment [1] (180 min), 0.014 in experiment [1] (210 min) and 0.032 in experiment [1] (240 min). The Fluorescent signal is given as 0 in experiment [2] (0 min); 174 in experiment [2] (30 min); 702 in experiment [2] (60 min); 1297 in experiment [2] (90 min); 2035 in experiment [2] (120 min); 2905 in experiment [2] (150 min). Moreover, the figures for the Fluorescent signal in experiment [2] (180 min), in experiment [2] (210 min) and in experiment [2] (240 min) were 3946, 5005 and 6668, respectively. The “Extent of reduction of the substrate (in words)” value in experiment [2] is recorded as “least reduced”.
